Measurements published in PubChem BioAssay AID192 (DTP/NCI, 2004).
Several values for one entry are separate records, joined by “and”; a condition that tells them apart may be missing. Identical values can stand only once. Inconclusive results and toxic doses are left out. Rule for the calls: active = survival T/C of 150% or more; inactive = T/C below 125% in these data.

Tested on: BDF1 mice, B16 melanoma ip, median survival T/C
Assay: NCI In Vivo Anticancer Drug Screen. Data for tumor model B16 Melanoma (intraperitoneal) in B6D2F1 (BDF1) mice
Settings: endpoint: median survival time, higher = longer survival
Method: The antitumor activity of compounds was measured in mice bearing transplantable tumors. Survival or tumor size were measured and the results are expressed as the measurement made in the treated group (T) divided by the measurement made in the vehicle treated control group (C). The tumor model used in this assay is B16 Melanoma (intraperitoneal) in B6D2F1 (BDF1) mice

[1] = dose: 100.0 mg/kg/injection, schedule: Q01DX009 (ip), vehicle: saline
[2] = dose: 400.0 mg/kg/injection, schedule: Q01DX009 (ip), vehicle: saline
[3] = dose: 50.0 mg/kg/injection, schedule: Q01DX009 (ip), vehicle: saline with Tween-80
[4] = dose: 100.0 mg/kg/injection, schedule: Q01DX009 (ip), vehicle: saline with Tween-80
[5] = dose: 12.5 mg/kg/injection, schedule: Q01DX009 (ip), vehicle: saline with Tween-80
[6] = dose: 25.0 mg/kg/injection, schedule: Q01DX009 (ip), vehicle: saline with Tween-80
[7] = dose: 200.0 mg/kg/injection, schedule: Q01DX009 (ip), vehicle: saline with Tween-80
[8] = dose: 400.0 mg/kg/injection, schedule: Q01DX009 (ip), vehicle: saline with Tween-80
[9] = dose: 25.0 mg/kg/injection, schedule: Q01DX009 (ip), vehicle: Klucel (hydroxypropylcellulose) (HPC)
[10] = dose: 50.0 mg/kg/injection, schedule: Q01DX009 (ip), vehicle: Klucel (hydroxypropylcellulose) (HPC)
[11] = dose: 100.0 mg/kg/injection, schedule: Q04DX003 (ip), vehicle: saline with Tween-80
[12] = dose: 200.0 mg/kg/injection, schedule: Q04DX003 (ip), vehicle: saline with Tween-80
[13] = dose: 400.0 mg/kg/injection, schedule: Q04DX003 (ip), vehicle: saline with Tween-80

Measured: T/C

Oc1cc2c(cc1O)[C@H]1c3ccc(O)c(O)c3OC[C@@]1(O)C2
inactive: dose: 25.0 mg/kg/injection, schedule: Q01DX009 (ip), vehicle: saline 100 % of control | dose: 50.0 mg/kg/injection, schedule: Q01DX009 (ip), vehicle: saline 102 % of control | [1] 103 % of control | dose: 200.0 mg/kg/injection, schedule: Q01DX009 (ip), vehicle: saline 108 % of control | [2] 103 % of control

CC(C)(C)OC(=O)NC(CCCCNC(=O)OCc1ccccc1)C(=O)O (stereo not given)
inactive: [3] 107 % of control | [4] 90 % of control

CC(=O)c1ccccc1C
inactive: [5] 102 % of control | [6] 108 % of control | [3] 92 % of control and 123 % of control

CC(CP(=O)(c1ccccc1)c1ccccc1)C(=O)O (stereo not given)
inactive: [4] 95 % of control | [7] 97 % of control | [8] 90 % of control

C/C=C(\C)C(=O)OC1CC[N+]2([O-])CCC(COC(=O)/C(=C/C)CO)C12 (stereo not given)
inactive: dose: 18.8 mg/kg/injection, schedule: Q01DX009 (ip), vehicle: saline 102 % of control | dose: 37.5 mg/kg/injection, schedule: Q01DX009 (ip), vehicle: saline 109 % of control | dose: 75.0 mg/kg/injection, schedule: Q01DX009 (ip), vehicle: saline 107 % of control | dose: 150.0 mg/kg/injection, schedule: Q01DX009 (ip), vehicle: saline 107 % of control

COC(=O)C1C(O)C(C)C(O)C(C)/C=C\C=C(C)C(=O)Nc2c(C)c(OC(C)=O)c3c(c2O)C(=O)C(C)=C2OCOC(=C23)C(C)=CC(C)(O)C(O)C(C)C1O (stereo not given)
inactive: dose: 12.5 mg/kg/injection, schedule: Q01DX009 (ip), vehicle: Klucel (hydroxypropylcellulose) (HPC) 112 % of control | [9] 100 % of control | dose: 25.0 mg/kg/injection, schedule: Q01DX009 (ip), vehicle: carboxymethylcellulose (CMC) 107 % of control | [10] 102 % of control | dose: 50.0 mg/kg/injection, schedule: Q01DX009 (ip), vehicle: carboxymethylcellulose (CMC) 103 % of control | dose: 100.0 mg/kg/injection, schedule: Q01DX009 (ip), vehicle: carboxymethylcellulose (CMC) 102 % of control | dose: 200.0 mg/kg/injection, schedule: Q01DX009 (ip), vehicle: carboxymethylcellulose (CMC) 96 % of control

ClC1=C(Cl)C2(Cl)C3C(Cl)C(Cl)CC3C1(Cl)C2(Cl)Cl (stereo not given)
inactive: [5] 95 % of control | [6] 97 % of control

Cc1cc(Cl)ccc1NS(=O)(=O)c1cccc([N+](=O)[O-])c1
inactive: [4] 116 % of control | [7] 121 % of control | [8] 107 % of control

COC(=O)C(C)CN1CCCCC1 (stereo not given)
inactive: dose: 50.0 mg/kg/injection, schedule: Q04DX003 (ip), vehicle: saline 111 % of control | dose: 100.0 mg/kg/injection, schedule: Q04DX003 (ip), vehicle: saline 111 % of control | dose: 200.0 mg/kg/injection, schedule: Q04DX003 (ip), vehicle: saline 105 % of control

Cc1ccc(S(=O)(=O)Cl)cc1Cl
inactive: [6] 108 % of control | [3] 97 % of control | [4] 86 % of control

[O-][n+]1c(CCl)nc2cccc3c2c1-c1ccccc1-3
inactive: [6] 101 % of control | [3] 96 % of control | [4] 90 % of control

ClCC1C(CCl)C2(Cl)C(Cl)=C(Cl)C1(Cl)C2(Cl)Cl (stereo not given)
inactive: [3] 92 % of control | [4] 93 % of control | [7] 92 % of control

C/C=C/C1=CC(=O)C(O)C1O (stereo not given)
inactive: dose: 25.0 mg/kg/injection, schedule: Q01DX009 (ip), vehicle: water 92 % of control | dose: 50.0 mg/kg/injection, schedule: Q01DX009 (ip), vehicle: water 117 % of control | dose: 100.0 mg/kg/injection, schedule: Q01DX009 (ip), vehicle: water 122 % of control | dose: 200.0 mg/kg/injection, schedule: Q01DX009 (ip), vehicle: water 122 % of control

CCNCCC#N
inactive: dose: 80.0 mg/kg/injection, schedule: Q01DX009 (ip), vehicle: saline 113 % of control | dose: 160.0 mg/kg/injection, schedule: Q01DX009 (ip), vehicle: saline 119 % of control | dose: 320.0 mg/kg/injection, schedule: Q01DX009 (ip), vehicle: saline 105 % of control

Oc1c(CN2CCCC2)cc(Nc2cc(/C=C/c3ccc(Cl)cc3)nc(/C=C\c3ccc(Cl)cc3)n2)cc1CN1CCCC1
inactive: dose: 3.0 mg/kg/injection, schedule: Q04DX003 (ip), vehicle: Klucel (hydroxypropylcellulose) (HPC) 105 % of control | dose: 6.0 mg/kg/injection, schedule: Q04DX003 (ip), vehicle: Klucel (hydroxypropylcellulose) (HPC) 97 % of control | dose: 12.0 mg/kg/injection, schedule: Q04DX003 (ip), vehicle: Klucel (hydroxypropylcellulose) (HPC) 89 % of control

CC(=O)O.[Pb]
inactive: dose: 1.56 mg/kg/injection, schedule: Q01DX009 (ip), vehicle: saline with Tween-80 95 % of control | dose: 3.13 mg/kg/injection, schedule: Q01DX009 (ip), vehicle: saline with Tween-80 95 % of control | dose: 6.25 mg/kg/injection, schedule: Q01DX009 (ip), vehicle: saline with Tween-80 95 % of control | [5] 88 % of control

C=CCOCC(O)CN1CCC(C)CC1 (stereo not given)
inactive: dose: 25.0 mg/kg/injection, schedule: Q04DX003 (ip), vehicle: Klucel (hydroxypropylcellulose) (HPC) 88 % of control | dose: 50.0 mg/kg/injection, schedule: Q04DX003 (ip), vehicle: Klucel (hydroxypropylcellulose) (HPC) 101 % of control | dose: 100.0 mg/kg/injection, schedule: Q04DX003 (ip), vehicle: Klucel (hydroxypropylcellulose) (HPC) 107 % of control

CC1CCCCN1CCNc1ccc(CO)c2sc3ccccc3c(=O)c12 (stereo not given)
inactive: [6] 112 % of control | [3] 124 % of control | [4] 121 % of control

O=c1[nH]c(=O)n2n1CC(Br)C(Br)C2 (stereo not given)
inactive: [11] 97 % of control | [12] 102 % of control | [13] 110 % of control

CN(C)c1ccc(-c2cc[n+](C)cc2)cc1
inactive: dose: 0.5 mg/kg/injection, schedule: Q01DX009 (ip), vehicle: saline 109 % of control | dose: 1.0 mg/kg/injection, schedule: Q01DX009 (ip), vehicle: saline 103 % of control | dose: 2.0 mg/kg/injection, schedule: Q01DX009 (ip), vehicle: saline 101 % of control | dose: 3.0 mg/kg/injection, schedule: Q01DX009 (ip), vehicle: saline 104 % of control | dose: 6.0 mg/kg/injection, schedule: Q01DX009 (ip), vehicle: saline 92 % of control

O=C1OC(COCC#Cc2ccccc2)CN1c1ccccc1 (stereo not given)
inactive: [9] 97 % of control | [10] 93 % of control | [11] 102 % of control | dose: 200.0 mg/kg/injection, schedule: Q01DX009 (ip), vehicle: Klucel (hydroxypropylcellulose) (HPC) 91 % of control | [12] 105 % of control | dose: 400.0 mg/kg/injection, schedule: Q01DX009 (ip), vehicle: Klucel (hydroxypropylcellulose) (HPC) 91 % of control | [13] 108 % of control

O=C(CN1C(=O)c2ccccc2C1=O)OC(c1ccccc1)c1ccccc1
inactive: [10] 90 % of control | dose: 100.0 mg/kg/injection, schedule: Q01DX009 (ip), vehicle: Klucel (hydroxypropylcellulose) (HPC) 90 % of control

OCC(O)c1ccccn1 (stereo not given)
inactive: [1] 123 % of control | [2] 123 % of control
